In this experiment the target is T1, human 5-HT7 receptor (Homo sapiens, UniProt P34969).
T1 construct: expressed in transfected cells; host or cells: CHO cells
T1 sequence (P34969 whole entry): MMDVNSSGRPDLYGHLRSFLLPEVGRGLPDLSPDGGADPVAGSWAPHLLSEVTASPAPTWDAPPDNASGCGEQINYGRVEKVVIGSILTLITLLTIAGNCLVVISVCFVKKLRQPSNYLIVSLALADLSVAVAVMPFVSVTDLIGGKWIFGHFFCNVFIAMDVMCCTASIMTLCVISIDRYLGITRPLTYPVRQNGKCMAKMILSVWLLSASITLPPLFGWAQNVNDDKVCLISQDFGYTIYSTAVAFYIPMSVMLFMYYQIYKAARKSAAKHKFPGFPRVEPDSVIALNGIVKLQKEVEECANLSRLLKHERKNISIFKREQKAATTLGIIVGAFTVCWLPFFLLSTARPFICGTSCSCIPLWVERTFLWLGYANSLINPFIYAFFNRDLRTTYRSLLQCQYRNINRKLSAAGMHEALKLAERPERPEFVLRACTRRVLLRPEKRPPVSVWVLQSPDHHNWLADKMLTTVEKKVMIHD
The experiment is described as follows: 5-HT7 Receptor Binding Assay. As to conditions: membranes of CHO cells expressing human 5-HT7 receptor; 1 nM 3H-5-carboxamidotryptamine; 25° C., 60 minutes. In a few lines:
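Membranes from CHO cells expressing human 5-HT7, 30 ug protein per well, incubated 60 min at 25° C in 50 mM HEPES with 0.1–1000 nM test compound and 1 nM ^3H-5-carboxamidotryptamine. Non-specific binding with 10 uM serotonin. Filtration and scintillation counting; IC50 by non-linear regression.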
With `C[C@H](Nc1nc(N)nc(NCCc2ccccn2)n1)c1ccc(F)cc1` [Example 18, N^2-[(1S)-1-(4-Fluorophenyl)ethyl]-N^4-[2-(2-pyridinyl)ethyl]-1,3,5-triazine-2,4,6-triamine], the half-maximal inhibitory concentration (IC50) (as a rule, the midpoint of a concentration-inhibition curve) was not above 50 nM.

`Nc1nc(NCCc2ccccc2)nc(NCc2ccccc2Cl)n1` [N^2-(2-Chlorophenylmethyl)-N^4-(2-phenylethyl)-1,3,5-triazine-2,4,6-triamine] gave an IC50 not above 50 nM. For `c1ccc(CNc2ccnc(NCCOc3ccccc3)n2)cc1` [N^2-(2-Phenoxyethyl)-N^4-(phenylmethyl)pyrimidine-2,4-diamine] the value was not above 50 nM.

The compound `FC(F)(F)c1cccc(CNc2ccnc(NCCOc3ccccc3)n2)c1` [N^2-(2-Phenoxyethyl)-N^4-[3-(trifluoromethyl)phenylmethyl]pyrimidine-2,4-diamine] displayed a concentration for half-maximal inhibition (IC50) not above 50 nM.

Consider `FC(F)(F)c1ccc(CNc2ccnc(NCCOc3ccccc3)n2)cc1` [N^2-(2-Phenoxyethyl)-N^4-[4-(trifluoromethyl)phenylmethyl]pyrimidine-2,4-diamine], for which the half-maximal inhibitory concentration (IC50) fell in the range of 101 to 200 nM. For `C[C@@H](Nc1ccnc(NCCOc2ccccc2)n1)c1ccccc1` [N^2-(2-Phenoxyethyl)-N^4-[(1R)-1-phenylethyl]pyrimidine-2,4-diamine] the value was 101 to 200 nM; for `CC[C@@H](Nc1ccnc(NCCOc2ccccc2)n1)c1ccccc1` [N^2-(2-Phenoxyethyl)-N^4-[(1R)-1-phenylpropyl]pyrimidine-2,4-diamine], 101 to 200 nM. For `C[C@H](Nc1ccnc(NCCOc2ccccc2)n1)c1ccccc1` [N^2-(2-Phenoxyethyl)-N^4-[(1S)-1-phenylethyl]pyrimidine-2,4-diamine] the value was not above 50 nM.

Turning to `CC[C@H](Nc1ccnc(NCCOc2ccccc2)n1)c1ccccc1` [N^2-(2-Phenoxyethyl)-N^4-[(1S)-1-phenylpropyl]pyrimidine-2,4-diamine], the half-inhibitory concentration (IC50) is not above 50 nM. With `CC(Nc1ccnc(NCCSc2ccccc2)n1)c1ccccc1` (stereo not shown) [N^2-(2-Phenthioethyl)-N^4-(1-phenylethyl)pyrimidine-2,4-diamine], the IC50 was in the range of 51 to 100 nM. With `c1ccc(CCNc2nccc(NCc3ccncc3)n2)cc1` [N^2-(2-Phenylethyl)-N^4-(4-pyridinylmethyl)pyrimidine-2,4-diamine], the IC50 was in the range of 101 to 200 nM. For `c1ccc(CCNc2nccc(NCc3ccccc3)n2)cc1` [N^2-(2-Phenylethyl)-N^4-(phenylmethyl)pyrimidine-2,4-diamine] the value was not above 50 nM. For `FC(F)(F)c1cccc(CNc2ccnc(NCCc3ccccc3)n2)c1` [N^2-(2-Phenylethyl)-N^4-[3-(trifluoromethyl)phenylmethyl]pyrimidine-2,4-diamine] the value was not above 50 nM; for `FC(F)(F)c1ccc(CNc2ccnc(NCCc3ccccc3)n2)cc1` [N^2-(2-Phenylethyl)-N^4-[4-(trifluoromethyl)phenylmethyl]pyrimidine-2,4-diamine], 101 to 200 nM; for `C[C@@H](Nc1ccnc(NCCc2ccccc2)n1)c1ccccc1` [N^2-(2-Phenylethyl)-N^4-[(1R)-1-phenylethyl]pyrimidine-2,4-diamine], 101 to 200 nM.

As to `CC[C@@H](Nc1ccnc(NCCc2ccccc2)n1)c1ccccc1` [N^2-(2-Phenylethyl)-N^4-[(1R)-1-phenylpropyl]pyrimidine-2,4-diamine], the IC50 is 51 to 100 nM. For `CC[C@H](Nc1ccnc(NCCc2ccccc2)n1)c1ccccc1` [N^2-(2-Phenylethyl)-N^4-[(1S)-1-phenylpropyl]pyrimidine-2,4-diamine] the value was not above 50 nM; for `CC(Nc1ccnc(N(C)CCc2ccccc2)n1)c1ccccc1` (stereo not shown) [N^2-(Methyl)-N^2-(2-phenylethyl)-N^4-(1-phenylethyl)pyrimidine-2,4-diamine], not above 50 nM.

With `CC(Nc1ccnc(NCCc2ccccc2F)n1)c1ccccc1` (stereo not shown) [N^2-[2-(2-Fluorophenyl)ethyl]-N^4-(1-phenylethyl)pyrimidine-2,4-diamine], the IC50 is not above 50 nM.

The record behind these values is patent publication US6630469B2, “5-HT7 receptor antagonists” (Bristol-Myers Squibb Company, priority 2000, dated 2003).
